# Source: US20200024278A1, “COMPOSITION COMPRISING ANTIBIOTIC COMPOUND AND AN HETEROCYCLIC COMPOUND AND THEIR USE IN PREVENTING OR TREATING BACTERIAL INFECTIONS” (MUTABILIS, priority 2016, published 2020)
# Read-outs that look alike come from different tables or passages of the source.
# Tests used:
# Assay in all cases: MIC, broth microdilution (CLSI), substance alone or ATB combined with compound at 4 or 8 μg/mL
# [1] = system: ECO 190317; type: cell-based, E. coli; details: ECO 190317; for MIC: Escherichia coli
# In short: (§1)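 Broth microdilution; ca-MHB; 5·10^5 CFU/mL; 35° C, 16-20 h; compound alone or fixed 4/8 μg/mL with antibiotic series; endpoint = no visible growth.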
# [2] = system: ECO UFR39; type: cell-based, E. coli; details: for MIC: Escherichia coli
# In short: as §1
# [3] = system: KPN 6299; type: cell-based, K. pneumoniae; details: for MIC: Klebsiella pneumoniae
# In short: as §1
# [4] = system: KPN BAA-1898; type: cell-based, K. pneumoniae; details: KPN BAA-1898; for MIC: Klebsiella pneumoniae, BAA1898
# In short: as §1
# [5] = system: KPN UFR42; type: cell-based, K. pneumoniae; details: for MIC: Klebsiella pneumoniae
# In short: as §1
# [6] = system: ECL P99; type: cell-based, E. cloacae; details: ECL P99
# In short: as §1
# [7] = antibiotic alone, read-out: MIC ATB alone
smiles,measurement,setting,value
"CO/N=C(\C(=O)N[C@@H]1C(=O)N2C(C(=O)O)=C(COC(N)=O)CS[C@H]12)c1ccco1 [FUR, Cefuroxime, reference compound]",MIC ATB combined with Example 1 @8 μg/ml,[1]; with Example 1 @8 μg/ml,<0.031 µg/mL
same,MIC ATB combined with Example 1 @8 μg/ml,[1]; with Example 1 at 8 μg/ml,<0.031 µg/mL
same,MIC ATB combined with Example 7 @8 μgml,[1]; with Example 7 at 8 μg/ml,<0.031 µg/mL
same,MIC ATB combined with Example 9 @4 μg/ml,[1]; with Example 9 @4 μg/ml,<0.031 µg/mL
same,MIC ATB combined with Example 9 @4 μg/ml,[1]; with Example 9 at 4 μg/ml,<0.031 µg/mL
same,MIC ATB combined with Example 11 @8 μg/ml,[1]; with Example 11 at 8 μg/ml,<0.031 µg/mL
same,MIC ATB combined with Example 12 @8 μg/ml,[1]; with Example 12 at 8 μg/ml,<0.031 µg/mL
same,MIC ATB combined with Example 13 @8 μg/ml,[1]; with Example 13 at 8 μg/ml,<0.031 µg/mL
same,MIC ATB combined with Example 14 @8 μg/ml,[1]; with Example 14 at 8 μg/ml,<0.031 µg/mL
same,MIC ATB combined with Example 15 @4 μgml,[1]; with Example 15 at 4 μg/ml,<0.031 µg/mL
same,MIC ATB combined with Example 16 @4 μg/ml,[1]; with Example 16 at 4 μg/ml,<0.031 µg/mL
same,MIC,[1]; [7],> 512 µg/mL
same,MIC,"[1]; substance alone, read-out: MIC",> 512 µg/mL
same,MIC ATB combined with Example 1 @8 μg/ml,"[2]; ECO UFR39, with Example 1 @8 μg/ml",>32 µg/mL
same,MIC ATB combined with Example 1 @8 μg/ml,"[2]; ECO UFR39, with Example 1 at 8 μg/ml",>32 µg/mL
same,MIC ATB combined with Example 7 @8 μgml,"[2]; ECO UFR39, with Example 7 at 8 μg/ml",<0.031 µg/mL
same,MIC ATB combined with Example 9 @4 μg/ml,"[2]; ECO UFR39, with Example 9 @4 μg/ml",<0.031 µg/mL
same,MIC ATB combined with Example 9 @4 μg/ml,"[2]; ECO UFR39, with Example 9 at 4 μg/ml",<0.031 µg/mL
same,MIC ATB combined with Example 11 @8 μg/ml,"[2]; ECO UFR39, with Example 11 at 8 μg/ml",<0.031 µg/mL
same,MIC ATB combined with Example 12 @8 μg/ml,"[2]; ECO UFR39, with Example 12 at 8 μg/ml",<0.031 µg/mL
same,MIC ATB combined with Example 13 @8 μg/ml,"[2]; ECO UFR39, with Example 13 at 8 μg/ml",<0.031 µg/mL
same,MIC ATB combined with Example 14 @8 μg/ml,"[2]; ECO UFR39, with Example 14 at 8 μg/ml",<0.031 µg/mL
same,MIC ATB combined with Example 15 @4 μgml,"[2]; ECO UFR39, with Example 15 at 4 μg/ml",<0.031 µg/mL
same,MIC ATB combined with Example 16 @4 μg/ml,"[2]; ECO UFR39, with Example 16 at 4 μg/ml",<0.031 µg/mL
same,MIC,[2],> 256 µg/mL
same,MIC,"[2]; ECO UFR39, antibiotic alone, read-out: MIC ATB alone",> 32 µg/mL
same,MIC,[3]; [7],> 512 µg/mL
same,MIC,"[3]; substance alone, read-out: MIC",> 512 µg/mL
same,MIC ATB combined with Example 1 @8 μg/ml,[3]; with Example 1 @8 μg/ml,8 µg/mL
same,MIC ATB combined with Example 1 @8 μg/ml,[3]; with Example 1 at 8 μg/ml,8 µg/mL
same,MIC ATB combined with Example 7 @8 μgml,[3]; with Example 7 at 8 μg/ml,2 µg/mL
same,MIC ATB combined with Example 9 @4 μg/ml,[3]; with Example 9 @4 μg/ml,<0.031 µg/mL
same,MIC ATB combined with Example 9 @4 μg/ml,[3]; with Example 9 at 4 μg/ml,<0.031 µg/mL
same,MIC ATB combined with Example 11 @8 μg/ml,[3]; with Example 11 at 8 μg/ml,<0.031 µg/mL
same,MIC ATB combined with Example 12 @8 μg/ml,[3]; with Example 12 at 8 μg/ml,<0.031 µg/mL
same,MIC ATB combined with Example 13 @8 μg/ml,[3]; with Example 13 at 8 μg/ml,2 µg/mL
same,MIC ATB combined with Example 14 @8 μg/ml,[3]; with Example 14 at 8 μg/ml,<0.031 µg/mL
same,MIC ATB combined with Example 15 @4 μgml,[3]; with Example 15 at 4 μg/ml,<0.031 µg/mL
same,MIC ATB combined with Example 16 @4 μg/ml,[3]; with Example 16 at 4 μg/ml,<0.031 µg/mL
same,MIC ATB combined with Example 1 @8 μg/ml,[4]; with Example 1 @8 μg/ml,2 µg/mL
same,MIC ATB combined with Example 1 @8 μg/ml,[4]; with Example 1 at 8 μg/ml,2 µg/mL
same,MIC ATB combined with Example 7 @8 μgml,[4]; with Example 7 at 8 μg/ml,8 µg/mL
same,MIC ATB combined with Example 9 @4 μg/ml,[4]; with Example 9 @4 μg/ml,<0.031 µg/mL
same,MIC ATB combined with Example 9 @4 μg/ml,[4]; with Example 9 at 4 μg/ml,<0.031 µg/mL
same,MIC ATB combined with Example 11 @8 μg/ml,[4]; with Example 11 at 8 μg/ml,<0.031 µg/mL
same,MIC ATB combined with Example 12 @8 μg/ml,[4]; with Example 12 at 8 μg/ml,<0.031 µg/mL
same,MIC ATB combined with Example 13 @8 μg/ml,[4]; with Example 13 at 8 μg/ml,8 µg/mL
same,MIC ATB combined with Example 14 @8 μg/ml,[4]; with Example 14 at 8 μg/ml,<0.031 µg/mL
same,MIC ATB combined with Example 15 @4 μgml,[4]; with Example 15 at 4 μg/ml,<0.031 µg/mL
same,MIC ATB combined with Example 16 @4 μg/ml,[4]; with Example 16 at 4 μg/ml,<0.031 µg/mL
same,MIC,[4]; [7],> 512 µg/mL
same,MIC,"[4]; substance alone, read-out: MIC",> 512 µg/mL
same,MIC ATB combined with Example 1 @8 μg/ml,"[5]; KPN UFR42, with Example 1 @8 μg/ml",>32 µg/mL
same,MIC ATB combined with Example 1 @8 μg/ml,"[5]; KPN UFR42, with Example 1 at 8 μg/ml",>32 µg/mL
same,MIC ATB combined with Example 7 @8 μgml,"[5]; KPN UFR42, with Example 7 at 8 μg/ml",>32 µg/mL
same,MIC ATB combined with Example 9 @4 μg/ml,"[5]; KPN UFR42, with Example 9 @4 μg/ml",>32 µg/mL
same,MIC ATB combined with Example 9 @4 μg/ml,"[5]; KPN UFR42, with Example 9 at 4 μg/ml",>32 µg/mL
same,MIC ATB combined with Example 11 @8 μg/ml,"[5]; KPN UFR42, with Example 11 at 8 μg/ml",<0.031 µg/mL
same,MIC ATB combined with Example 12 @8 μg/ml,"[5]; KPN UFR42, with Example 12 at 8 μg/ml",<0.031 µg/mL
same,MIC ATB combined with Example 13 @8 μg/ml,"[5]; KPN UFR42, with Example 13 at 8 μg/ml",>32 µg/mL
same,MIC ATB combined with Example 14 @8 μg/ml,"[5]; KPN UFR42, with Example 14 at 8 μg/ml",<0.031 µg/mL
same,MIC ATB combined with Example 15 @4 μgml,"[5]; KPN UFR42, with Example 15 at 4 μg/ml",<0.031 µg/mL
same,MIC ATB combined with Example 16 @4 μg/ml,"[5]; KPN UFR42, with Example 16 at 4 μg/ml",<0.031 µg/mL
same,MIC,[5],> 256 µg/mL
same,MIC,"[5]; KPN UFR42, antibiotic alone, read-out: MIC ATB alone",> 32 µg/mL
same,MIC ATB combined with Example 1 @8 μg/ml,[6]; with Example 1 @8 μg/ml,<=0.031 μg/mL
same,MIC ATB combined with Example 1 @8 μg/ml,[6]; with Example 1 at 8 μg/ml,<=0.031 μg/mL
same,MIC ATB combined with Example 7 @8 μgml,[6]; with Example 7 at 8 μg/ml,>32 µg/mL
same,MIC ATB combined with Example 9 @4 μg/ml,[6]; with Example 9 @4 μg/ml,<0.031 µg/mL
